# Data published in patent US6500944B2, “Sulfurizing reagent: 3-aryl-1,2,4-dithiazoline-5-ones” (Avecia Biotechnology, Inc., priority 1997, dated 2002).
# Experiments:
# Stability study in CH3CN = type: physicochemical; conditions: 25° C., checked by HPLC and 1H-NMR
# Protocol: Stability and solubility studies of the sulfur transfer reagents were performed. […] The stability of the compound was checked by HPLC and ^1H-NMR.
# (§1) The solubility and stability studies were carried out in CH3CN at 25° C. The saturated solution was dried, and the solubility was determined by the weight of the testing compounds in the exact volume of testing solution. The stability was determined based on either TLC or HPLC and ^1H-NMR analyses.
# [1] = Solubility study in CH3CN; type: physicochemical; conditions: 25° C.
# Protocol: as §1
smiles,measurement,setting,value
"O=c1nc(-c2ccccc2)ss1 [3-phenyl-1,2,4-dithiazoline-5-one]",stable in CH3CN,Stability study in CH3CN,more than thirty
same,solubility in CH3CN,[1],highly soluble
